The values below come from ChEMBL document CHEMBL1134304, “Discovery of novel p-arylthio cinnamides as antagonists of leukocyte function-associated antigen-1/intercellular adhesion molecule-1 interaction. 4. Structure-activity relationship of substituents on the benzene ring of the cinnamide” (J Med Chem, 2001).

Assay [1] addresses T1, Intercellular adhesion molecule (ICAM-1), Integrin alpha-L/beta-2 (Homo sapiens, UniProt P05107+P20701). The experiment in a line: Inhibition of LFA-1 mediated JY-8 cell adhesion to ICAM-1, range (2-9). The assay is classed as functional, cell-based.
Assay [2] has as its target T2, Integrin alpha-L (Homo sapiens, UniProt P20701).
T2 sequence (P20701 whole entry): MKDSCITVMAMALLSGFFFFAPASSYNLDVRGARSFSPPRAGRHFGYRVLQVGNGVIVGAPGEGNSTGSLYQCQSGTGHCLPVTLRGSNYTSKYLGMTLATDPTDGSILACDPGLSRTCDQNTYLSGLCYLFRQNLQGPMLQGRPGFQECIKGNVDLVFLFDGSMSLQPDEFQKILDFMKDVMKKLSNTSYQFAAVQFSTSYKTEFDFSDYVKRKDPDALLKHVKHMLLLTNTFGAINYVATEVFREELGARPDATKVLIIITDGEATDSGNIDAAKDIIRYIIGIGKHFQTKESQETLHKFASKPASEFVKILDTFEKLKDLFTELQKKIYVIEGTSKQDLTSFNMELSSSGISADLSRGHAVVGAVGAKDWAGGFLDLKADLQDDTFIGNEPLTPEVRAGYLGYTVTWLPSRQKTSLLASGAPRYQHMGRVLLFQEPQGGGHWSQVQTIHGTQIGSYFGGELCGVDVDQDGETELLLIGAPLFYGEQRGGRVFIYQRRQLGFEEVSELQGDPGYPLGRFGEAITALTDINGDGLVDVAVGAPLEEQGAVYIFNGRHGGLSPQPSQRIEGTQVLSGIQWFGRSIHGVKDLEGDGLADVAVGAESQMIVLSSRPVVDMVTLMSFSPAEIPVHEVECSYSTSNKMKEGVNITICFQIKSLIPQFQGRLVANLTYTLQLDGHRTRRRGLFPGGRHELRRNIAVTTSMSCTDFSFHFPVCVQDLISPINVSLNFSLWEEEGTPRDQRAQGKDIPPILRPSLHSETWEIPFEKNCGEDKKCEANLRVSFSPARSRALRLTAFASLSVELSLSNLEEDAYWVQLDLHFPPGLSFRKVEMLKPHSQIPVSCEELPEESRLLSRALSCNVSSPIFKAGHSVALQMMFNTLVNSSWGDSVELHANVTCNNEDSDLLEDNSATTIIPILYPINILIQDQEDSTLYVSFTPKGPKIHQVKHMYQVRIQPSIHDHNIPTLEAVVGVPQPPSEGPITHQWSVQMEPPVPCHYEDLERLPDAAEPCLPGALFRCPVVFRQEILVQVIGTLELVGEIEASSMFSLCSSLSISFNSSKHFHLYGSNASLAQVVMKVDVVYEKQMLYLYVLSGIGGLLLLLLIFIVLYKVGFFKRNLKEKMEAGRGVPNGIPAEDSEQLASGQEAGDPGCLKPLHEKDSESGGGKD
The experiment in a line: Inhibition of intercellular adhesion molecule-1 (ICAM-1) binding to recombinant LFA-1, range (5-8).

Assay [3] has as its target T2, Integrin alpha-L. The experiment in a line: Inhibition of intercellular adhesion molecule-1 (ICAM-1) binding to recombinant LFA-1, range(100-110).
Assay [4] addresses T2, Integrin alpha-L. The experiment in a line: Inhibition of intercellular adhesion molecule-1 (ICAM-1) binding to recombinant LFA-1, range(100-200).
The target of assay [5] is T1, Intercellular adhesion molecule (ICAM-1), Integrin alpha-L/beta-2. Description: Inhibition of LFA-1 mediated JY-8 cell adhesion to ICAM-1, range (100-600). The assay is classed as functional, cell-based.
In assay [6] the target is T2, Integrin alpha-L. The experiment in a line: Inhibition of intercellular adhesion molecule-1 (ICAM-1) binding to recombinant LFA-1, range (6-9).
Assay [7] deals with T2, Integrin alpha-L. Description: Inhibition of intercellular adhesion molecule-1 (ICAM-1) binding to recombinant LFA-1, range (3700-3800).
Assay [8] addresses T2, Integrin alpha-L.
For assay [9], the target named is T1, Intercellular adhesion molecule (ICAM-1), Integrin alpha-L/beta-2.
Assay [10] addresses T2, Integrin alpha-L. The experiment in a line: Inhibition of intercellular adhesion molecule-1 (ICAM-1) binding to recombinant LFA-1.
Assay [11] concerns the target T2, Integrin alpha-L. Description: Inhibition of intercellular adhesion molecule-1 (ICAM-1) binding to recombinant LFA-1, range (6-10).
In assay [12] the target is T1, Intercellular adhesion molecule (ICAM-1), Integrin alpha-L/beta-2. The experiment in a line: Inhibition of LFA-1 mediated JY-8 cell adhesion to ICAM-1, range (3-10). The assay is classed as functional, cell-based.
The target in assay [13] is T2, Integrin alpha-L. Description: Inhibition of intercellular adhesion molecule-1 (ICAM-1) binding to recombinant LFA-1, range(760-2620).
The target in assay [14] is T2, Integrin alpha-L. The experiment in a line: Inhibition of intercellular adhesion molecule-1 (ICAM-1) binding to recombinant LFA-1, range (260-270).
Assay [15] concerns the target T2, Integrin alpha-L. Description: Inhibition of intercellular adhesion molecule-1 (ICAM-1) binding to recombinant LFA-1, range (2500-11500).
The target of assay [16] is T2, Integrin alpha-L. Description: Inhibition of intercellular adhesion molecule-1 (ICAM-1) binding to recombinant LFA-1, range(50-60).
Assay [17] concerns the target T1, Intercellular adhesion molecule (ICAM-1), Integrin alpha-L/beta-2. The experiment in a line: Inhibition of LFA-1 mediated JY-8 cell adhesion to ICAM-1, range (30-170). The assay is classed as functional, cell-based.
The target is the same in assay [18]. The experiment in a line: Inhibition of LFA-1 mediated JY-8 cell adhesion to ICAM-1, range (3-18). The assay is classed as functional, cell-based.
In assay [19] the target is T2, Integrin alpha-L. Description: Inhibition of intercellular adhesion molecule-1 (ICAM-1) binding to recombinant LFA-1, range (6-19).
The target of assay [20] is T2, Integrin alpha-L. The experiment in a line: Inhibition of intercellular adhesion molecule-1 (ICAM-1) binding to recombinant LFA-1, range (3600-5100).
Assay [21] addresses T2, Integrin alpha-L. Description: Inhibition of intercellular adhesion molecule-1 (ICAM-1) binding to recombinant LFA-1, range(120-140).
In assay [22] the target is T2, Integrin alpha-L. The experiment in a line: Inhibition of intercellular adhesion molecule-1 (ICAM-1) binding to recombinant LFA-1, range(6-9).
The target in assay [23] is T1, Intercellular adhesion molecule (ICAM-1), Integrin alpha-L/beta-2. Description: Inhibition of LFA-1 mediated JY-8 cell adhesion to ICAM-1, range (6-10). The assay is classed as functional, cell-based.

A value given as a limit tells only on which side of the number the result lay.

T1 sequence (P05362 whole entry, one chain of several, further chain): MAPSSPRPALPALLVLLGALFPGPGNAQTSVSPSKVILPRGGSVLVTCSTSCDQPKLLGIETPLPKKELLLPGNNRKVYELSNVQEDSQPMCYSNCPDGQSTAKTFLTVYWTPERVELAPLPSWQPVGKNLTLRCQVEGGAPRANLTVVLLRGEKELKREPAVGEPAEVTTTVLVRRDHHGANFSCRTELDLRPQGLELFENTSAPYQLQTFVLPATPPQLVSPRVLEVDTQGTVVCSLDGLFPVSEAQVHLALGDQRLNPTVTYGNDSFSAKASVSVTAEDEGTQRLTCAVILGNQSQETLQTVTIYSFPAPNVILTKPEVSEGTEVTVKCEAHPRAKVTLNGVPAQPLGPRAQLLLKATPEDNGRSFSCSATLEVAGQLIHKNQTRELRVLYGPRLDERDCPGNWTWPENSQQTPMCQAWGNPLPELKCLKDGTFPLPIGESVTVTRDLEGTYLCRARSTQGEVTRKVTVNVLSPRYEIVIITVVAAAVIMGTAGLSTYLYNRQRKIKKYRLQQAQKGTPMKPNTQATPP
T1 sequence (P05107 whole entry, one chain of several): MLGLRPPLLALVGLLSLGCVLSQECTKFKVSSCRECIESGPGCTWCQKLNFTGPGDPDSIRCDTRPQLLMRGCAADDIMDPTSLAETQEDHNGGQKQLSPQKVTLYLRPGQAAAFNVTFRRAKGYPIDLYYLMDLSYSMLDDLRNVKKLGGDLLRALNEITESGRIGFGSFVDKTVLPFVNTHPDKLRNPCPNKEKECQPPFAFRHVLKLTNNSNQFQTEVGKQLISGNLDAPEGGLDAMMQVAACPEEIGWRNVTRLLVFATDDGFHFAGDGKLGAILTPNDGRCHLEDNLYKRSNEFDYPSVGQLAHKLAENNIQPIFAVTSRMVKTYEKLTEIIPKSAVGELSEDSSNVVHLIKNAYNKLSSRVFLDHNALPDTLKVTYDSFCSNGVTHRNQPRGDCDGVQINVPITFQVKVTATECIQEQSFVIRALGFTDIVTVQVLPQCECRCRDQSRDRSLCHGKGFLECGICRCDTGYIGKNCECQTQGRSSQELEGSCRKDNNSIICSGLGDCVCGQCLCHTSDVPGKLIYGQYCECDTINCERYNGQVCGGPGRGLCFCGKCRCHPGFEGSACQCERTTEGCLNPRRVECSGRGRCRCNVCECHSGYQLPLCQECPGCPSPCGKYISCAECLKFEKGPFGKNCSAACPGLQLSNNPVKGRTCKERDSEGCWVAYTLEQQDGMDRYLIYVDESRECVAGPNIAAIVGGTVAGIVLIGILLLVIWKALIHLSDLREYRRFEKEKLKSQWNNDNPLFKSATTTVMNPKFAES

Consider `COc1ccccc1Sc1ccc(/C=C/C(=O)N2CCC(C(=O)O)CC2)c(C(F)(F)F)c1Cl`, for which the figures for the IC50 in assay [1] and in assay [2] were 0.004 µM and 0.006 µM, respectively.
`CC(=O)N1CCN(C(=O)/C=C/c2ccc(Sc3cccc(Cl)c3Cl)c([N+](=O)[O-])c2)CC1`: the IC50 in assay [3] turned out to be 0.105 µM.
As for `CC(=O)N1CCN(C(=O)/C=C/c2ccc(Sc3ccc(Cl)cc3Cl)c(Cl)c2)CC1`, the IC50 in [4] amounted to 0.14 µM; in assay [5], 0.13 µM.
For the compound `O=C(O)C1CCN(C(=O)/C=C/c2ccc(Sc3ccc4c(c3)OCCO4)c(Cl)c2Cl)CC1`, the IC50 worked out at 0.006 µM in assay [1] and 0.007 µM in assay [6].
In the case of `CC(=O)N1CCN(C(=O)/C=C/c2ccc(Sc3cccc(Cl)c3Cl)c(S(=O)(=O)N(C)C)c2)CC1`, in assay [7], the IC50 was found to be 3.75 µM.
For the compound `COc1ccccc1Sc1ccc(/C=C/C(=O)N2CCC(C(=O)O)CC2)c(C(F)(F)F)c1C(F)(F)F`, the figures for the IC50 in [8] and in [9] were 0.005 µM and 0.0001 µM, respectively.
With `COc1ccccc1Sc1cc(Cl)c(/C=C/C(=O)N2CCC(C(=O)O)CC2)cc1Cl`, the IC50 in assay [10] was > 20 µM.
Take `COc1ccccc1Sc1ccc(/C=C/C(=O)N2CCOCC2)c(C(F)(F)F)c1Cl`: the IC50 in [11] came out at 0.008 µM; in assay [12], 0.005 µM.
For the compound `COc1ccccc1Sc1ccc(/C=C/C(=O)N2CCC(C(=O)O)CC2)c(Cl)c1`, the IC50 in assay [13] was 1.4 µM.
Take `COc1ccccc1Sc1ccc(/C=C/C(=O)N2CCC(C(=O)O)CC2)c(C(F)(F)F)c1`: the half-maximal inhibitory concentration (IC50) in assay [14] amounted to 0.265 µM.
Regarding `COc1ccccc1Sc1ccc(/C=C/C(=O)N2CCN(C(C)=O)CC2)c(F)c1`, the IC50 in assay [15] was found to be 3.9 µM.
Turning to `CC(=O)N1CCN(C(=O)/C=C/c2ccc(Sc3ccc4c(c3)OCCO4)c(C(F)(F)F)c2)CC1`, the IC50 is 0.055 µM in [16] and 0.06 µM in assay [17].
For `CC(C)c1ccccc1Sc1ccc(/C=C/C(=O)N2CCC(C(=O)O)CC2)c(Cl)c1Cl`, the results for the IC50 in assay [18] and in assay [19] were 0.006 µM and 0.01 µM, respectively.
Turning to `CC(=O)N1CCN(C(=O)/C=C/c2ccc(Sc3ccc(Cl)cc3Cl)cc2)CC1`, the IC50 in assay [20] worked out at 4.3 µM.
With `CC(=O)N1CCN(C(=O)/C=C/c2ccc(Sc3ccc4c(c3)OCCO4)c([N+](=O)[O-])c2)CC1`, in assay [21], the IC50 was determined as 0.139 µM.
As to `CC(=O)N1CCN(C(=O)/C=C/c2ccc(Sc3ccc4c(c3)OCCO4)c(Cl)c2Cl)CC1`, the IC50 was found to be 0.007 µM in assay [22] and 0.008 µM in [23].
